Marks after values point to notes of the source that are not given here.
Experiments:
HeLa cells = test: Apoptosis by V450 Annexin V / propidium iodide flow cytometry; format: cell-based
From the text: Staining with V450 Annexin V (BD Biosciences) was used to analyse the percentage of cells within a population that are actively undergoing apoptosis. Propidium Iodide (PI) is a standard DNA-staining flow cytometric viability probe and is used to distinguish viable from nonviable cells. Cells that stain positive for V450 Annexin V and negative for PI are undergoing apoptosis. Cells that stain positive for both V450 Annexin V and PI are either in the end stages of apoptosis, are undergoing necrosis, or are already dead. Cells that stain negative for both V450 Annexin V and PI are alive and not undergoing measurable apoptosis.
For this reason these cells were chosen to evaluate the effects of these compounds on cell death. A 2 ml aliquot of growth medium containing 20,000 cells was seeded into each well of a 6 well plate. […] The growth medium was removed and retained and the cells washed with PBS followed by Incubation with 1 ml of Accutase (Life Technologies, Paisley, UK, Catalog Number A11105-01) per well for 15 mins. The original growth medium was then added back to neutralise the Accutase, and this centrifuged at 1,200 rpm for 5 mins to pellet the cells and this repeated twice with cold PBS. The cell pellet was finally re-suspended in 1× binding buffer (10×=0.1 M Hepes (pH 7.4), 1.4 M NaCl, 25 mM CaCl2) at a concentration of 10^6 cell/ml. A 100 μl aliquot containing 10^5 cells was removed and placed in a 5 ml culture tube and 5 μl of V450 Annexin V added plus 10 μl PI (50 μg/ml) added. The cells were gently mixed and incubated at room temperature for 15 min in the dark then 400 μl of 1× binding buffer was added prior to being analysed by flow cytometry using a Cyan ADP instrument (Beckman Coulter) and Summit software within one hour of the above procedure. The Annexin fluorochrome was excited using a 405 nm laser and the emission measured using a 450/50 nm bandpass filter. The PI was excited using a 488 nm laser and the emission detected using a 613/20 nm bandpass filter. The data was gated to select single cells using a plot of forward scatter against pulse width, and to exclude debris using forward scatter plotted against side scatter. All cytometry assays shown were the result of three separate cultures and intra-assay variability was also assessed by repeating the same drug treatment assay (1:1 Lop/Rit) three times. Unstained cells and cells stained separately with either V450 Annexin V or PI were used as controls to optimise compensation and gating of the cytometer.

[1] = cited from earlier work
[2] = tested on: more advanced invasive cervical disease; settings: cited from earlier work
glioma = settings: ritonavir alone; cited from earlier work
SiHa cells = test: CellTitre 96 AQ colorimetric cell growth assay; format: cell-based; settings: 5 μM, 0-72 hours
Procedure: SiHa cells were grown in RPMI plus 10% FBS and HeLa in DMEM plus 10% FBS. These were seeded at 2000 cells/well for HeLa and 5000 cells/well for SiHa in triplicate into standard tissue culture grade 96 well plates and incubated overnight at 37° C./5% CO2. […] At each time point 20 μl of CellTitre 96® AQ reagent (Promega) was then added to three separate wells per data point and the absorbance (OD490) read after 1 hour at 37° C. The CellTitre 96® AQ reagent is a water soluble MTS formazan version of the well-known MTT reagent which produces a colorimetric readout that is directly proportional to the number of viable cells present.

[3] = tested on: pre-invasive cells derived from the cervix; settings: cited from earlier work
CIN2 lesions = settings: young women aged 18-29; topical, physician applied, 16 weeks; cited from earlier work
HPV infection = settings: hybrid capture 2 assay; cited from earlier work
CIN2/3 = settings: topical application; cited from earlier work
CIN and HPV infections = settings: cited from earlier work

For `Cc1cccc(C)c1OCC(=O)N[C@@H](Cc1ccccc1)[C@@H](O)C[C@H](Cc1ccccc1)NC(=O)[C@H](C(C)C)N1CCCNC1=O` (relative stereo) [lopinavir, [1S-[1R*(R*), 3R*, 4R*]]—N-[4-[(2,6-dimethylphenoxy0acetyl]amino]-3-hydroxy-5-phenyl-1-(phenylmethyl)pentyl]tetrahydro-alpha-(1-methylethyl)-2-oxo-1 (2H)-pyrimidineacetamide], the “R4 gate Mean (percentage of cells in quadrant R4, late stage apoptosis)” value (HeLa cells; 48 hrs, total dose 25 μM, concentrations (μM) in the label) was 21.8000%, the “Mean Difference to DMSO, R4 gate (Dunnett t)” value (HeLa cells; 48 hrs, versus DMSO control) was 15.38* and the “level of apoptosis compared between treatments (FIG. 13)” value (HeLa cells; total dose 25 μM, R4 and R6+R4) was “less effective than any of the combination treatments”. For the same compound, the “Mean Difference, R4 gate (Bonferonni)” value (HeLa cells; versus Lop20Rit5) was −13.45* and the solubility in water [1] was “virtually insoluble in water”.
In the case of `CC(C)c1nc(CN(C)C(=O)N[C@H](C(=O)N[C@@H](Cc2ccccc2)C[C@H](O)[C@H](Cc2ccccc2)NC(=O)OCc2cncs2)C(C)C)cs1` (relative stereo) [ritonavir, 10-Hydroxy-2-methyl-5-(1-methylethl)-1-[2-(1-methylethyl)-4-thiazolyl]-3,6-dioxo-8, 11bis(phenylmethyl)-2,4,7,12-tetraazatridecan-13-oic acid, 5-thiazolylmethylester, [5S-(5R*,8R*,10R8,11R*)]], the “efficacy against more advanced invasive cervical disease” value [2] is given as “not effective”, the “effect against glioma in vivo” value (glioma) is given as “no effect” and the “effect on cell growth (OD490)” value (SiHa cells) is given as “no effect”. For the same compound, the “activity against pre-invasive cells derived from the cervix” value [3] was “has shown activity”.
In the case of `O=c1[nH]cc(F)c(=O)[nH]1` [5FU], the “effective against CIN2 lesions” value (CIN2 lesions) is given as > 90%.
For `Nc1ccn(C[C@@H](CO)OCP(=O)(O)O)c(=O)n1` [Cidofovir], the “elimination of HPV infection” value (HPV infection) is listed as “did not eliminate HPV infection” and the “clearance of CIN” value (CIN2/3) is listed as ~60%.
For `CC(C)Cn1cnc2c(N)nc3ccccc3c21` [Imiquimod], the “effect against CIN and HPV infections” value (CIN and HPV infections; before and after LEEP, treatment >8 weeks) is given as “some effect” and the side effects (CIN and HPV infections; direct application to the cervix) is given as “quite severe”.
